# Measured values as given in PMC7506137, “Selective Phosphodiesterase 1 Inhibitor BTTQ Reduces Blood Pressure in Spontaneously Hypertensive and Dahl Salt Sensitive Rats: Role of Peripheral Vasodilation” (Frontiers in Physiology, 2020).
# Where two headings read alike, the source gives them in different places.
# Experiment: Plasma exposure (dried blood spot) after single oral dose
# Format: in vivo
# Conditions: male, Sprague Dawley, rat, whole blood (dried blood spot), po
# Method: Male Sprague Dawley rats at 6 to 7 weeks were dosed orally by p.o. gavage with different doses of BTTQ formulated in 1% hydroxyethlycellulose (Dow Corning, Midland, MI, United States) (w/v), 0.25% polysorbate 80 (Sigma-Aldrich, St. Louis, MO, United States) (v/v), and 0.05% antifoam (v/v; Dow Corning, Midland, MI, United States) in purified water. Following dosing, ear temperature was measured by using a k-type thermocouple probe digital thermometer (Cole Parmer) every hour for 6 h and then at 24 h. Blood samples for plasma exposure measurement were obtained at the same time. Blood was collected via a tail snip directly into a 20-μL EDTA-coated capillary and immediately spotted onto a Whatman DMPK-C DBS card (GE Healthcare Bio-Sciences). Tail snips were performed by removing approximately 1 mm of the tail by using a scalpel. Blood flow was initiated by gentle squeezing of the tail. No analgesia or anesthesia was used during blood collections. A single sample and spot were collected per time point. The DBS cards were allowed to dry for approximately 2 h at room temperature, after which the cards were placed in a zip-top bag, stored, and shipped at ambient temperature.
# [1] = 1 mg/kg, oral 1 mg/kg, FU 0.053, read-out: Unbound Concentration, individual animals
# [2] = 1 mg/kg, oral 1 mg/kg, dried blood spot, read-out: Concentration, Mean
# [3] = 1 mg/kg, oral 1 mg/kg, dried blood spot, read-out: Concentration, individual animals
# [4] = 1 mg/kg, oral 1 mg/kg, FU 0.053, read-out: Unbound Concentration, Mean
# [5] = 3 mg/kg, oral 3 mg/kg, FU 0.053, read-out: Unbound Concentration, Mean
# [6] = 3 mg/kg, oral 3 mg/kg, FU 0.053, read-out: Unbound Concentration, individual animals
# [7] = 3 mg/kg, oral 3 mg/kg, dried blood spot, read-out: Concentration, Mean
# [8] = 3 mg/kg, oral 3 mg/kg, dried blood spot, read-out: Concentration, individual animals
smiles,measurement,setting,value
"O=c1c2nnc(C3(C4CC4)CC3)n2c2c(n1CC1CC1)CCCC2 [BTTQ, 1-[1,1′-bi(cyclopropyl)-1-yl]-5-(cyclopropylmethyl)-6,7,8,9-tetrahydro[1,2,4]triazolo[4,3-A]quinoxaline-4(5H)-one]",concentration at 2 h,[1],88.5 nM
same,concentration at 2 h,[2],1650 nM
same,concentration at 2 h,[3],1670 nM
same,concentration at 3 h,[4],62.1 nM
same,concentration at 3 h,[1],64.1 nM
same,concentration at 3 h,[2],1170 nM
same,concentration at 3 h,[3],1210 nM
same,concentration at 4 h,[4],57.3 nM
same,concentration at 4 h,[1],47.7 nM
same,concentration at 4 h,[2],1080 nM
same,concentration at 4 h,[3],900 nM
same,concentration at 5 h,[4],49.6 nM
same,concentration at 5 h,[1],41.1 nM
same,concentration at 5 h,[2],935 nM
same,concentration at 5 h,[3],775 nM
same,concentration at 6 h,[4],41.3 nM
same,concentration at 6 h,[1],41.3 nM
same,concentration at 6 h,[2],780 nM
same,concentration at 6 h,[3],779 nM
same,concentration at 24 h,[4],2.13 nM
same,concentration at 24 h,[2],40.2 nM
same,concentration at 1 h,[5],197 nM
same,concentration at 1 h,[6],142 nM
same,concentration at 1 h,[7],3710 nM
same,concentration at 1 h,[8],2670 nM
same,concentration at 2 h,[5],195 nM
same,concentration at 2 h,[6],166 nM
same,concentration at 2 h,[7],3690 nM
same,concentration at 2 h,[8],3140 nM
same,concentration at 3 h,[5],168 nM
same,concentration at 3 h,[6],169 nM
same,concentration at 3 h,[7],3170 nM
same,concentration at 3 h,[8],3180 nM
same,concentration at 4 h,[5],148 nM
same,concentration at 4 h,[6],155 nM
same,concentration at 4 h,[7],2790 nM
same,concentration at 4 h,[8],2920 nM
same,concentration at 5 h,[5],115 nM
same,concentration at 5 h,[6],142 nM
